Experiments:
[1] = target: T1, GppNHp-bound KRAS^G12D (Homo sapiens, UniProt P01116, G12D); test: Binding to KRAS and measurement of dissociation constants (FIG. 4B-4C), GppNHp-bound; settings: read-out: dissociation constant KD
T1 construct: made in house; host or cells: Escherichia coli BL21-Gold (DE3)

[2] = target: T2, GTP-loaded KRAS^G12D / CRAF RBD interaction (Homo sapiens, UniProt P01116, G12D); test: In vitro RAS pulldown with CRAF RBD; type: biochemical; settings: in vitro pull-down
T2 construct: made in house; host or cells: Escherichia coli BL21-Gold (DE3)
Experimental: A 20 μM solution of KRAS^G12D in 50 mM HEPES, 200 mM sodium chloride, 2 mM TCEP with 1 mM EDTA and 1 mM GTP was gently rotated at 25° C. to remove the endogenous nucleotide. Magnesium chloride was then added to 5 mM and the resulting solution was rotated at 4° C. for 4 hours. The GTP-loaded KRAS^G12D was then diluted to 20 nM and incubated with the inhibitors and 5 μL of CRAF-RBD agarose beads (Millipore), 10 μL of RAF1-RBD agarose beads (EMD Millipore, CN: 14-278), or 100 nM RALGDS (Abcam, CN: ab132590) with 20 μL of glutathione beads for 2 hours. The beads were separated from the lysate via a 0.1 μm filter spin cup and centrifuging at 14,000-15,000 rpm. They were then washed twice with PBS before the addition of 1×SDS. The quantity of RAS in the samples was then analyzed using the previously described Western blotting procedure.
(§1) A set of 45 of the closest matches (ranging from 0.85-0.97 Tanimoto coefficient) were synthesized (based on Scheme 2 with appropriate modifications) and tested for their ability to bind to KRAS^G12D by differential scanning fluorimetry.

[3] = target: T3, KRAS^G12D⋅BODIPY-GTP (Homo sapiens, UniProt P01116, G12D); test: Nucleotide displacement assay with BODIPY-GTP (fluorescence polarization); type: binding; settings: 2.5 μM KRAS^G12D⋅BODIPY-GTP, 12 hours
T3 construct: made in house; host or cells: Escherichia coli BL21-Gold (DE3)
Experimental: Nucleotide Displacement Assay
To investigate whether compounds were binding to the same site as GTP, a fluorescent polarization assay was implemented using fluorescently-labeled BODIPY-GTP as a probe. When BODIPY-GTP is free in solution, it has a low polarization. However, when BODIPY-GTP is bound to K-Ras protein, the polarization intensity is high. K-Ras G12D bound to BODIPY-GTP was incubated with different concentrations of ligand or unlabeled GTP or GDP in buffer containing 25 mM Tris-HCl, pH 8, 100 mM NaCl, 5 mM MgCl2, 1 mM EDTA, and 1 mM TCEP. The final concentration of K-Ras G12D bound to BODIPY-GTP in each well was 2.5 μM. The samples were incubated at 25° C. for 12 hours with gentle shaking to allow for the slow intrinsic nucleotide release reaction to take place. The change in fluorescence was measured on a Victor3 plate reader (Perkin Elmer) in 384-well black low-volume plates (Corning, Inc.). The BODIPY-GTP fluorophore was excited at 485 nm and emission was monitored at 535 nm.

[4] = target: T4, GDP-bound KRAS^G12D (Homo sapiens, UniProt P01116, G12D); test: Binding to KRAS and measurement of dissociation constants (FIG. 4B-4C), GDP-bound; settings: read-out: dissociation constant KD
T4 construct: made in house; host or cells: Escherichia coli BL21-Gold (DE3)

[5] = target: T5, KRAS^G12D I36N (Homo sapiens, UniProt P01116, G12D/I36N); test: Microscale thermophoresis on binding-site mutant KRAS^G12D I36N; settings: MST, 31MEW79 experiment of b434
T5 construct: His6 (N); made in house
Experimental: (§2) Mutagenesis of the KRAS^G12D plasmid was performed using a QuikChange XL site-directed mutagenesis kit from Agilent technologies, according to the manufacturer's protocol. Primers were designed using the Agilent QuikChange Primer Design application and purchased from Integrated DNA Technologies. KRAS^G12D D38A forward primer 5′ ATATGATCCAACAATAGAGGCTTCCTACAGGAAGCAAGTAG 3′ (SEQ ID NO: 66), KRAS^G12D D38A reverse primer 5′ CTACTTGCTTCCTGTAGGAAGCCTCTATTGTTGGATCATAT 3′ (SEQ ID NO: 67), KRAS^G12D I36N forward primer 5′ CATTTTGTGGACGAATATGATCCAACAAATGAGGATTCCTACAGG 3′ (SEQ ID NO: 68), KRAS^G12D I36N reverse primer 5′ CCTGTAGGAATCCTCATTTGTTGGATCATATTCGTCCACAAAATG 3′ (SEQ ID NO: 69). DNA sequencing was performed to confirm the correct amino acid sequence of the construct (GeneWiz, Inc.).
KRAS^G12D (250 μM) in 25 mM HEPES, 100 mM sodium chloride, 2 mM TCEP with 20 mM EDTA and 1 mM GppNHp was shaken at 220 rpm at 30° C. to remove the endogenous nucleotide, The solution was placed on ice for 2 minutes prior to the addition of 65 mM MgCl2. After an additional 10 minutes incubation on ice, 200 uL of a 10 uM solution of KRAS^G12D was combined with 200 uL of a 20 uM solution of NT-647-NHS-ester dye (from a 652.4 μM stock). The protein/dye mixture was rotated at 4° C. for 30 minutes, before being separated from the excess dye and buffer exchanged into 25 mM Tris, 100 mM sodium chloride, 2 mM TCEP, and 5 mM MgCl2 via a nap-5 column. The test compounds were arrayed across a 16-point dilution series consisting of 1.5% DMSO with 25 mM Tris, 100 mM NaCl, 2 mM TCEP, 5 mM MgCl2 and 0.05% tween-20. Thermophoretic movement of the fluorescently labeled protein with the inhibitors was performed using a Monolith NT.115 (Nanotemper Technologies). RALA and RHOA were purchased commercially from Abcam (RALA CN:ab102555, RHOA CN:ab101594). […]

[6] = target: T6, GTP-loaded KRAS G12D (Homo sapiens, UniProt P01116, G12D); test: Microscale thermophoresis, GTP-loaded KRAS G12D labeled with NT-647-maleimide; type: binding; settings: read-out: dissociation constant KD
T6 construct: made in house; host or cells: Escherichia coli BL21-Gold (DE3)
Experimental: Microscale Thermophoresis
KRAS^G12D (250 μM) in 25 mM HEPES, 100 mM sodium chloride, 2 mM TCEP with 20 mM EDTA and 1 mM GppNHp was shaken at 220 rpm at 30° C. to remove the endogenous nucleotide, The solution was placed on ice for 2 minutes prior to the addition of 65 mM MgCl2. […] The protein/dye mixture was rotated at 4° C. for 30 minutes, before being separated from the excess dye and buffer exchanged into 25 mM Tris, 100 mM sodium chloride, 2 mM TCEP, and 5 mM MgCl2 via a nap-5 column. The test compounds were arrayed across a 16-point dilution series consisting of 1.5% DMSO with 25 mM Tris, 100 mM NaCl, 2 mM TCEP, 5 mM MgCl2 and 0.05% tween-20. Thermophoretic movement of the fluorescently labeled protein with the inhibitors was performed using a Monolith NT.115 (Nanotemper Technologies). RALA and RHOA were purchased commercially from Abcam (RALA CN:ab102555, RHOA CN:ab101594).
as §1

[7] = target: T7, KRAS^G12D D38A (Homo sapiens, UniProt P01116, D38A/G12D); test: Microscale thermophoresis on binding-site mutant KRAS^G12D D38A
T7 construct: His6 (N); made in house
Experimental: as §2
KRAS^G12D (250 μM) in 25 mM HEPES, 100 mM sodium chloride, 2 mM TCEP with 20 mM EDTA and 1 mM GppNHp was shaken at 220 rpm at 30° C. to remove the endogenous nucleotide, The solution was placed on ice for 2 minutes prior to the addition of 65 mM MgCl2. After an additional 10 minutes incubation on ice, 200 uL of a 10 uM solution of KRAS^G12D was combined with 200 uL of a 20 uM solution of NT-647-NHS-ester dye (from a 652.4 μM stock). The protein/dye mixture was rotated at 4° C. for 30 minutes, before being separated from the excess dye and buffer exchanged into 25 mM Tris, 100 mM sodium chloride, 2 mM TCEP, and 5 mM MgCl2 via a nap-5 column. The test compounds were arrayed across a 16-point dilution series consisting of 1.5% DMSO with 25 mM Tris, 100 mM NaCl, 2 mM TCEP, 5 mM MgCl2 and 0.05% tween-20. Thermophoretic movement of the fluorescently labeled protein with the inhibitors was performed using a Monolith NT.115 (Nanotemper Technologies). RALA and RHOA were purchased commercially from Abcam (RALA CN:ab102555, RHOA CN:ab101594).
as §1

- Kd [1]: 3800 µM
- CRAF-bound KRAS^G12D [2]: dose-dependent decrease
- displacement of BODIPY-GTP [3]: No displacement
- Kd [4]: 7100 µM
- Kd [5]: 47 µM
- Kd [6]: 33 µM
- loss in affinity ([7]; KRAS^G12D D38A and I36N vs KRAS^G12D): 1.5 to 3.0 fold
- Kd ([7]; MST, 31MEW79 experiment of b434): 83 µM
Compound: NCCC[C@@H](NC(=O)CN1CCCNCC1)C(=O)NC1Cc2ccccc2C1 [Compound 31MEW79, (R)-2-(2-(1,4-diazepan-1-yl)ethanamido)-5-amino-N-(2,3-dihydro-1H-inden-2-yl)pentanamide]
